Two molecules from patent US20260355318A1, “MOLECULAR MACHINES FOR TREATMENT OF CANCER, FUNGAL INFECTIONS, OR BACTERIAL INFECTIONS” (priority 2022, published 2026) can be followed below.

In one test the test system is B. cepacia. Nature of the test: MIC, B. cepacia. The test is classed as cell-based. The conditions noted are these: Burkholderia cepacia, read-out: MIC of MM. How it is done: (§1) The appropriate volume of an MM stock at 8 mM necessary to achieve a concentration ranging from 0.3125 to 40 μM was pipetted into a 2 mL microcentrifuge tube to which 1 mL of cell suspension prepared as previously described was added. Corresponding negative controls (DMSO only) were prepared in the same way. The mixture was gently mixed by pipetting and incubated in the dark at 30 or 37 ° C, depending on the strain, for 30 min with agitation (220 rpm). Afterward, MM- or DMSO-treated cells were dispensed in one well of a 24-well plate positioned in the center of the light beam (405 nm LED Light, Prizmatix, UHP—F-5-405) placed at the appropriate distance necessary to achieve the desired light intensity of 304 mW cm-2, 146 mW cm2 or 87 mW cm2, as measured with a handheld digital power meter console coupled to an S415C thermal power sensor head (Thorlabs, Newton, MA, USA). The temperature during irradiation was monitored using a thermocouple probe (Model SC-TT-K-30-36-PP; Omega Engineering, Inc., Stanford, CT, USA). Samples were agitated during irradiation. Dark controls were prepared as previously described except that no irradiation was provided. […]

Test [1] relates to E. coli. Nature of the test: MIC, E. coli. The test is classed as cell-based, Escherichia coli BW25113. The conditions noted are these: Escherichia coli, read-out: MIC of MM.
The subject of test [2] is C. albicans. The test is described as follows: MIC, visible-light-activated MMs and conventional antifungals, C. albicans. It counts as cell-based, Candida albicans (ATCC 18804). As to conditions: Candida albicans, read-out: MIC of MM. The procedure, abridged:
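C. albicans suspensions (~10^4 CFU/mL in saline, CLSI) incubated 30 min in the dark with MMs, then irradiated with stirring at 405 nm, 292 mW cm^−2 for 5 min (87.6 J cm^−2). Cells then grown in MOPS-buffered RPMI 1640 (pH 7.0) at 30 °C for 48 h; MIC is lowest concentration with no visible growth; conventional antifungals tested likewise.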

For the next test, the system named is S. aureus. The test is described as follows: MIC, S. aureus. As to conditions: for MIC of MM: S. aureus; for MIC: Staphylococcus aureus, read-out: MIC of MM. It counts as cell-based, Staphylococcus aureus. The procedure, abridged: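 Cell suspensions were exposed to compound at 0.3125-40 μM for 30 min in the dark, with agitation, at 30 or 37 °C depending on strain. Each sample was then irradiated with 405 nm light at 146 mW cm^−2 for 5 min (43.8 J cm^−2), inoculated into MHB and incubated overnight. MIC was read as the lowest concentration without visible growth, alongside non-irradiated controls.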

Test [3] has as its system E. coli. Nature of the test: Time-kill / light-dose experiments, E. coli. It counts as cell-based, Escherichia coli. As to conditions: E. coli; for light dose for complete eradication: highest concentration of MM (5 μM), 405 nm. How it is done:
(§2) Serial dilutions of irradiated cell suspensions were prepared in PBS. A volume of 10 AL of the appropriate serial dilutions was spot-plated onto LB agar plates. Following overnight incubation at 30 or 37 ° C, depending on the strain, bacterial viability was assessed as colony forming units (CFU) per mL. Results were expressed as log (N/NO) whereby N is the CFU mL^−1 at each irradiation time point and NO is the initial CFU mL^−1 of the corresponding sample. Only dilutions that yielded 10-100 colonies were counted.

In test [4] the test system is C. albicans. Nature of the test: Lipid peroxidation (TBARS, MDA). The test is classed as cell-based, Candida albicans. The conditions noted are these: 2×MIC. How it is done: Superoxide dismutase (SOD) activity was determined using a Superoxide Dismutase Assay Kit (Caymanchem, MI, USA) per the distributor's instructions. Lipid peroxidation was determined using a TBARS assay kit (TCA method) (Caymanchem, MI, USA) per the distributor's instructions. SOD activity and MDA levels were normalized by protein content determined by the Pierce assay (Pierce™ BCA Protein Assay Kit, Thermo Fisher Scientific, MA, USA).

The test system of test [5] is Gram-negative and Gram-positive strains. Nature of the test: MIC comparison Gram-positive versus Gram-negative strains (incl. MRSA). As to conditions: FIG. 33C. The test is classed as cell-based. From the text:
The dotted line denotes the limit of detection of the method. Results are the means of at least 3 biological replicas #standard error of the mean. (FIG. 33B) MIC value of MM 1, MM 5, MM 6 in different Gram-negative and Gram-positive strains, including MRSA. Bars represent the results from at least 3 biological replicas. Unless otherwise noted, results for MM and DMSO are always reported in the presence of light. (FIG. 33C) Box and whiskers plot (median values with min/max range) of the MIC values of MM 1, MM 5, and MM 6 among the Gram-negative and Gram-positive strains examined in this study. * P<0.05; ns, not significant.
The appropriate volume of an MM stock at 8 mM necessary to achieve a concentration ranging from 0.3125 to 40 μM was pipetted into a 2 mL microcentrifuge tube to which 1 mL of cell suspension prepared as previously described was added. Corresponding negative controls (DMSO only) were prepared in the same way. […] Afterward, MM- or DMSO-treated cells were dispensed in one well of a 24-well plate positioned in the center of the light beam (405 nm LED Light, Prizmatix, UHP—F-5-405) placed at the appropriate distance necessary to achieve the desired light intensity of 304 mW cm-2, 146 mW cm2 or 87 mW cm2, as measured with a handheld digital power meter console coupled to an S415C thermal power sensor head (Thorlabs, Newton, MA, USA). […]

Another test deals with A. baumannii. Nature of the test: Time-kill / light-dose experiments, A. baumannii. The test is classed as cell-based, Acinetobacter baumannii. As to conditions: highest concentration of MM (5 μM), 405 nm. How it is done: as §2
The next test has as its system E. cloacae. The test is described as follows: MIC, E. cloacae. It counts as cell-based. The conditions noted are these: Enterobacter cloacae, read-out: MIC of MM. How it is done:
as §1

Where [6] appears, read: E. coli, Table 9, 405 nm light 43.8 J cm^−2.

Like-named read-outs stand apart in the source and are kept apart here.

What is called MIC is the least concentration at which growth counts as inhibited. `C[C@@H]1Cc2ccc3ccccc3c2/C1=C1\c2ccccc2Sc2cc(NCCN)ccc21` (racemic) [MM 6, N^1-(9-(2-methyl-2,3-dihydro-1H-cyclopenta[a]naphthalen-1-ylidene)-9H-thioxanthen-3-yl)ethane-1,2-diamine]: the minimal inhibitory concentration (MIC) was 10 µM with B. cepacia; 2.5 µM in the test on E. coli [1] (setting [6]); ≤ 5 µM in the test on C. albicans [2]; 0.078 µM in the test with S. aureus; 10 µM with E. cloacae. Moreover, the “MIC of MM” value with S. aureus (Table 9, 405 nm light 43.8 J cm^−2) is 0.078. The “time to reduce cell number to limit of detection” value in the test on E. coli [3] (2×MIC, 146 mW cm^−2 405 nm) was 4 min. The “light dose for complete eradication” value in the test on E. coli [3] and in the test with A. baumannii was “at least 40 J cm^−2” throughout. Moreover, the “lipid peroxidation product levels” value in the test on C. albicans [4] is recorded as “increased levels of the lipid peroxidation product malonaldehyde”. Further, the “median MIC in Gram-positive versus Gram-negative bacteria” value in test [5] is “significant differences in the MIC between the two bacterial groups were not observed”.
Regarding `C[C@@H]1Cc2ccc3ccccc3c2/C1=C1\c2ccccc2Sc2cc(NCCN(C)C)ccc21` [MM 1, N^1N^1-dimethyl-N^2-(9-(2-methyl-2,3-dihydro-1H-cyclopenta[a]naphthalen-1-ylidene)-9H-thioxanthen-3-yl) ethane-1,2-diamine], the minimal inhibitory concentration (MIC) in the test on B. cepacia was 10 µM; in the test with E. coli [1] (E. coli BW25113, 405 nm light 43.8 J cm^−2), 1.25 µM; in the test on E. coli [1] (setting [6]) it was 1.25 µM; in the test with C. albicans [2] it was ≤ 5 µM; with S. aureus, 0.156 µM. Further, the “MIC of MM” value in the test with S. aureus (405 nm light) is 0.156 µM. Further, the “light dose for complete eradication” value in the test with E. coli [3] and with A. baumannii was “at least 40 J cm^−2” throughout. Besides, the “median MIC in Gram-positive versus Gram-negative bacteria” value in test [5] was “significant differences in the MIC between the two bacterial groups were not observed”.
